In assay [1] the target is T1, glutathione-S-transferase (GST) tagged LXRbeta LBD (ligand binding domain) (Homo sapiens, UniProt P55055).
T1 construct: purchased Invitrogen pv4658.pps
T1 sequence (P55055 222-460 limits assumed): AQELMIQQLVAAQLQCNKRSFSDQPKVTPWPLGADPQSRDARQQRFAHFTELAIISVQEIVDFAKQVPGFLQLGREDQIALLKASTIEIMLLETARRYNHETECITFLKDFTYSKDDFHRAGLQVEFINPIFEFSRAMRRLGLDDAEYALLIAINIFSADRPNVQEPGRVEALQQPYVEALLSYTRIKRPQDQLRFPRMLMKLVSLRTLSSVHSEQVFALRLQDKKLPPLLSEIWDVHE
The assay can be described thus: LanthaScreen TR-FRET Liver X Receptor Coactivator Assay, co-activator recruitment to LXRbeta LBD. Type of assay: biochemical. Summed up:
(§1)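 LXRα- or LXRβ-LBD protein was added to test compounds, then fluorescein-labelled coactivator peptide plus Tb-anti-GST antibody; after room-temperature incubation, TR-FRET was read. Inflection point (IP) and Emax were expressed relative to the dual agonist reference T0901317.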
On the technique in general: Time-resolved FRET reads energy transfer from a long-lived donor to a nearby acceptor.

Assay [2] deals with T2, glutathione-S-transferase (GST) tagged LXRalpha LBD (ligand binding domain) (Homo sapiens, UniProt Q13133).
T2 construct: purchased Invitrogen pv4655
T2 sequence (Q13133 209-447 limits assumed): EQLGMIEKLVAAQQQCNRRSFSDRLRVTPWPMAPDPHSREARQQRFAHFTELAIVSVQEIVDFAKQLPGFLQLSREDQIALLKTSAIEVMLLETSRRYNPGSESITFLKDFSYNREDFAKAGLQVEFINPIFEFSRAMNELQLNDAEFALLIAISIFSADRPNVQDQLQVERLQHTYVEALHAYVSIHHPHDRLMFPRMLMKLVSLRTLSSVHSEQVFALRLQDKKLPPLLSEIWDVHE
The assay can be described thus: LanthaScreen TR-FRET Liver X Receptor Coactivator Assay, co-activator recruitment to LXRalpha LBD. Type of assay: biochemical. The note with it: for EC50 / LXR alpha IP (nM): potency (Inflection Point, IP), co-activator recruitment to LXRalpha LBD, in relation to T0901317; for EC50: read-out: LXR alpha IP. Summed up: as §1

[3] abbreviates: efficacy at max dose, in relation to reference dual agonist T0901317, read-out: LXR beta Activity @ max dose (%).
Where [4] appears, read: potency (Inflection Point, IP), co-activator recruitment to LXRbeta LBD, in relation to T0901317, read-out: LXR beta IP.
Setting [5] is: efficacy at max dose, in relation to reference dual agonist T0901317, read-out: LXR alpha Activity @ max dose (%).

Like-named read-outs stand apart in the source and are kept apart here.

For the molecule `CN(C)C(=O)c1ccc(N2CCC(CC3CCN(C(=O)[C@@](O)(c4cccc(Cl)c4)C(F)(F)F)CC3)CC2)nc1Cl` [Example 7-70, 2-chloro-6-[4-({1-[(2S)-2-(3-chlorophenyl)-3,3,3-trifluoro-2-hydroxypropanoyl]piperidin-4-yl}methyl)piperidin-1-yl]-N,N-dimethyl-pyridine-3-carboxamide], the results for the Emax in assay [1] (setting [3]) and in assay [2] (setting [5]) were 110% and 34%, respectively. Besides, the EC50 in assay [1] (setting [4]) turned out to be 25 nM; in assay [2] it was 1250 nM.
Take `O=C(c1ccc(N2CCC(CC3CCN(C(=O)[C@](O)(c4cc(Cl)cc(Cl)c4)C(F)(F)F)CC3)CC2)cc1Cl)N1CCC[C@H]1CO` [Example 4-24, (2R)-3-(4-{[1-(3-chloro-4-{[(2S)-2-(hydroxymethyl)pyrrolidin-1-yl]carbonyl}phenyl)piperidin-4-yl]methyl}piperidin-1-yl)-2-(3,5-dichlorophenyl)-1,1,1-trifluoro-3-oxopropan-2-ol]: the values for the Emax in assay [1] (setting [3]) and in assay [2] (setting [5]) were 28% and 0%, respectively. Further, the EC50 in assay [1] (setting [4]) was 7 nM. In assay [2], the “LXR alpha IP (nM)” value was “NO IP”.
As for `COc1cc(F)cc([C@@](O)(C(=O)N2CCC(CC3CCN(c4ccc(C(N)=O)c(Cl)c4)CC3)CC2)C(F)(F)F)c1` [Example 12-3, 2-chloro-4-[4-({1-[(2R)-3,3,3-trifluoro-2-(3-fluoro-5-methoxy-phenyl)-2-hydroxy-propanoyl]piperidin-4-yl}methyl)-piperidin-1-yl]-benzamide], the Emax in assay [1] (setting [3]) came out at 79%; in assay [2] (setting [5]), 20%. In addition, the EC50 in assay [1] (setting [4]) amounted to 5 nM; in assay [2], 49 nM.
Turning to `CN(C)C(=O)c1ccc(N2CCC(CC3CCN(C(=O)[C@](O)(c4cc(Cl)cc(Cl)c4)C(F)(F)F)CC3)CC2)nc1Cl` [Example 7-93, 2-chloro-6-[4-({1-[(2R)-2-(3,5-dichlorophenyl)-3,3,3-trifluoro-2-hydroxypropanoyl]piperidin-4-yl}methyl)piperidin-1-yl]-N,N-dimethylpyridine-3-carboxamide], the Emax in assay [1] (setting [3]) was 55%. Besides, the EC50 in assay [1] (setting [4]) is 6 nM. For the same molecule, the “LXR alpha Activity @ max dose (%)” value in assay [2] (efficacy at max dose, in relation to reference dual agonist T0901317) came to 1%. In addition, the “LXR alpha IP (nM)” value in assay [2] is listed as “NO IP”.
For `CCOc1cccc([C@@](O)(C(=O)N2CCC(CC3(C)CCN(c4ccc(C(=O)N(C)C)c(C)n4)CC3)CC2)C(F)(F)F)c1` [Example 7-14, 6-[4-({1-[(2R)-2-(3-ethoxyphenyl)-3,3,3-trifluoro-2-hydroxypropanoyl]piperidin-4-yl}methyl)-4-methyl-piperidin-1-yl]-N,N,2-trimethylpyridine-3-carboxamide], the values for the Emax in assay [1] (setting [3]) and in assay [2] (setting [5]) were 100% and 0%, respectively. The EC50 in assay [1] (setting [4]) was determined as 105 nM. In addition, in assay [2], the “LXR alpha IP (nM)” value is reported as “NO IP”.
Turning to `CN(C)C(=O)c1ccc(N2CCC(CC3CCN(C(=O)[C@](O)(c4cc(F)cc(F)c4)C(F)(F)F)CC3)CC2)cc1Cl` [Example 2-94, 2-chloro-4-[4-({1-[(2R)-2-(3,5-difluoro-phenyl)-3,3,3-trifluoro-2-hydroxy-propanoyl]piperidin-4-yl}methyl)piperidin-1-yl]-N,N-dimethyl-benzamide], the figures for the Emax in assay [1] (setting [3]) and in assay [2] (setting [5]) were 89% and 48%, respectively. Further, the EC50 was 4 nM in assay [1] (setting [4]) and 50 nM in assay [2].
In the case of `COCCN(C)C(=O)c1ccc(N2CCC(OC3CCN(C(=O)[C@](O)(c4ccccc4)C(F)(F)F)CC3)CC2)cc1Cl` [Example 4-14, 2-chloro-N-(2-methoxyethyl)-N-methyl-4-[4-({1-[(2R)-3,3,3-trifluoro-2-hydroxy-2-phenylpropanoyl]piperidin-4-yl}oxy)piperidin-1-yl]benzamide], the Emax in assay [1] (setting [3]) amounted to 88%; in assay [2] (setting [5]), 42%. Besides, the results for the EC50 in assay [1] (setting [4]) and in assay [2] were 117 nM and 2170 nM, respectively.
For `CN(Cc1ccon1)C(=O)c1ccc(N2CCC(OC3CCN(C(=O)[C@](O)(c4ccccc4)C(F)(F)F)CC3)CC2)cc1Cl` [Example 4-15, 2-chloro-N-(isoxazol-3-yl-methyl)-N-methyl-4-[4-({1-[(2R)-3,3,3-trifluoro-2-hydroxy-2-phenylpropanoyl]piperidin-4-yl}oxy)piperidin-1-yl]benzamide] the same measures were 87%, 40%, 38 nM and 1300 nM.
For `CN(C)C(=O)c1ccc(N2CCC(CC3CCN(C(=O)[C@](O)(c4ccccc4)C(F)F)CC3)CC2)cc1Cl` [Example 2-166, 2-chloro-4-[4-({1-[(2R)-3,3-difluoro-2-hydroxy-2-phenyl-propanoyl]piperidin-4-yl}methyl)piperidin-1-yl]-N,N-dimethyl-benzamide] the same measures were 46%, 20%, 14 nM and 296 nM.
Consider `CN(C)C(=O)c1ccc(N2CCC(CC3CCN(S(=O)(=O)c4cccc(Cl)c4)CC3)CC2)cc1Cl` [Example 13-13, 2-chloro-4-[4-({1-[(3-chlorophenyl)sulfonyl]-piperidin-4-yl}methyl)-piperidin-1-yl]-N,N-dimethylbenzamide], for which the EC50 in assay [1] (co-activator recruitment to GST-LXRbeta LBD, TR-FRET, read-out: LXR beta IP (Inflection Point, potency)) was found to be 74 nM. Further, the Emax in assay [1] (efficacy in relation to reference dual agonist T0901317, read-out: LXR beta Activity @ max dose) came to 49%; in assay [2] (efficacy in relation to reference dual agonist T0901317, read-out: LXR alpha Activity @ max dose), 15%. Also, the “LXR alpha IP (Inflection Point, potency)” value in assay [2] (co-activator recruitment to GST-LXRalpha LBD, TR-FRET) is recorded as “NO IP”.
For the molecule `CN(C)C(=O)c1ccc(N2CCC(CC3CCN(C(=O)C(O)(c4cc(F)cc(F)c4)C(F)(F)F)CC3)CC2)nc1Cl` (stereo not shown) [Example 7-82, 2-chloro-6-[4-({1-[2-(3,5-difluorophenyl)-3,3,3-trifluoro-2-hydroxypropanoyl]piperidin-4-yl}methyl)piperidin-1-yl]-N,N-dimethylpyridine-3-carboxamide], the results for the Emax in assay [1] (setting [3]) and in assay [2] (setting [5]) were 111% and 53%, respectively. Besides, the figures for the EC50 in assay [1] (setting [4]) and in assay [2] were 7 nM and 106 nM, respectively.
For `Cc1cc(N2CCC(CC3CCN(C(=O)[C@](O)(c4ccccc4)C(F)(F)F)CC3)CC2)ccc1C(=O)N(C)C` [Example 2-155, N,N,2-trimethyl-4-[4-({1-[(2R)-3,3,3-trifluoro-2-hydroxy-2-phenyl-propanoyl]piperidin-4-yl}methyl)piperidin-1-yl]benzamide] the same measures were 69%, 33%, 25 nM and 386 nM.
For the molecule `CNC(=O)c1ccc(N2CCC(CC3CCN(C(=O)[C@](O)(c4cccc(OC(F)(F)F)c4)C(F)(F)F)CC3)CC2)cc1Cl` [Example 7-125, 2-chloro-N-methyl-4-{4-[(1-{(2R)-3,3,3-trifluoro-2-hydroxy-2-[3-(trifluoromethoxy)phenyl]propanoyl}piperidin-4-yl)methyl]piperidin-1-yl}benzamide], the values for the Emax in assay [1] (setting [3]) and in assay [2] (setting [5]) were 79% and 24%, respectively. For the same molecule, the EC50 in assay [1] (setting [4]) came out at 37 nM; in assay [2], 740 nM.
For `CN(C)C(=O)c1ccc(N2CCC(CC3CCN(C(=O)[C@](O)(c4cccc(F)c4)C(F)(F)F)CC3)CC2)cc1Cl` [Example 2-84, 2-chloro-N,N-dimethyl-4-[4-({1-[(2R)-3,3,3-trifluoro-2-(3-fluoro-phenyl)-2-hydroxy-propanoyl]piperidin-4-yl}methyl)piperidin-1-yl]benzamide], in that order: 83%, 38%, 7 nM and 140 nM.
For `CN(C)C(=O)c1ccc(N2CCC(CC3CN(C(=O)C(O)(c4cccc(Cl)c4)C(F)(F)F)C3)CC2)cc1Cl` (stereo not shown) [Example 2-65, 2-chloro-4-[4-({1-[2-(3-chlorophenyl)-3,3,3-trifluoro-2-hydroxy-propanoyl]azetidin-3-yl}methyl)piperidin-1-yl]-N,N-dimethyl-benzamide] the same measures were 89%, 35%, 17 nM and 694 nM.
Turning to `CCOc1cccc([C@@](O)(C(=O)N2CCC(CC3CCN(c4ccc(C(=O)N(C)C)c(Cl)c4)CC3)CC2)C(F)(F)F)c1` [Example 2-92, 2-chloro-4-[4-({1-[(2R)-2-(3-ethoxyphenyl)-3,3,3-trifluoro-2-hydroxy-propanoyl]piperidin-4-yl}methyl)piperidin-1-yl]-N,N-dimethyl-benzamide], the Emax was found to be 56% in assay [1] (setting [3]) and 3% in assay [2] (setting [5]). Further, the EC50 in assay [1] (setting [4]) was 12 nM. The “LXR alpha IP (nM)” value in assay [2] is recorded as “NO IP”.

The record behind these values is patent US10752587B2, “Homobispiperidinyl derivatives as liver X receptor beta agonists, compositions and their use” (Merck Sharp & Dohme Corp., priority 2015, dated 2020).
